Consider 36 compounds from ChEMBL document CHEMBL1629419, “1,3-Diphenyl-1H-pyrazole derivatives as a new series of potent PPARγ partial agonists” (Bioorg Med Chem, 2010).

The structures appear in SMILES notation.

In the first assay the target is T1, Peroxisome proliferator-activated receptor gamma (Homo sapiens, UniProt P37231).
T1 sequence (P37231 whole entry): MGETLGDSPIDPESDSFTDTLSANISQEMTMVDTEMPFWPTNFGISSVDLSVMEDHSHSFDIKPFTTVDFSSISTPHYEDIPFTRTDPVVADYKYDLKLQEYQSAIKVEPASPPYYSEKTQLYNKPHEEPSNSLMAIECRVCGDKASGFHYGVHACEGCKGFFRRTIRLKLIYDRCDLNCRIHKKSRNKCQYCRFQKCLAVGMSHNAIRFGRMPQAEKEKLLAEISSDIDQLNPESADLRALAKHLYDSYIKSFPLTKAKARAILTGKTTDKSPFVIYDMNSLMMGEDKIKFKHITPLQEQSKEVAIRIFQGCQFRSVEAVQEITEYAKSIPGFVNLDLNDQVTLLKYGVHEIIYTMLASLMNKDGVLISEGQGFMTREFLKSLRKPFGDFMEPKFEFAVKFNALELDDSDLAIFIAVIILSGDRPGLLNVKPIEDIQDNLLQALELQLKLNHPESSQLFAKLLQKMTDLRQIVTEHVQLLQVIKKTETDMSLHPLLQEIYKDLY
The assay is described as follows: Partial agonist activity at human PPARgamma-LBD expressed in HEK293T cells assessed as induction of receptor transactivation after 24 hrs by luciferase reporter gene assay. Format: functional, cell-based, HEK-293T. (In general: Reporter assays use an easily measured gene product as a stand-in for the process of interest.)
As usually defined, the EC50 is the concentration giving half of the maximal effect. Take `O=C(Oc1ccc([N+](=O)[O-])cc1)c1cn(-c2ccccc2)nc1-c1ccccc1`: the EC50 turned out to be 2290 nM.

The target in another assay is T1, Peroxisome proliferator-activated receptor gamma. The assay is described as follows: Displacement of fluormone PPAR-green from N-terminal His-tagged human PPARgamma-LBD after 2 hrs by fluorescence polarization assay. In general terms: Fluorescence polarisation rises when a labelled molecule tumbles more slowly, as on binding a larger partner.
What is called IC50 is the concentration that inhibits the measured activity by half. Read a low IC50 as greater potency in that assay. Regarding `O=C(Oc1ccc([N+](=O)[O-])cc1)c1cn(-c2ccccc2)nc1-c1ccccc1`, the IC50 was 973 nM.

A further assay has as its target T2, Peroxisome proliferator-activated receptor gamma (Homo sapiens) (UniProt P37231).
T2 sequence (whole entry): T1 sequence (P37231 whole entry)
The assay is described as follows: Displacement of fluormone PPAR-green from N-terminal His-tagged human PPARgamma-LBD assessed as logarithm unit binding affinity value at 10 uM after 2 hrs by fluorescence polarization assay.
For `COc1ccc(-c2nn(-c3ccccc3)cc2C(=O)Oc2ccc(C)cc2)cc1OC`, the binding affinity worked out at 1.85. On the same count and under the same terms, with `COc1cc(C=O)ccc1OC(=O)c1cn(-c2ccccc2)nc1-c1ccc(Br)cc1` the figure was 1.73.

For the compound `S=C(NCc1ccco1)NCc1cn(-c2ccccc2)nc1-c1ccccc1`, the binding affinity was found to be 1.73. With `O=C(N/N=C/c1cn(-c2ccccc2)nc1-c1ccc(F)cc1)C(O)c1ccccc1` (stereo not drawn), the binding affinity is 1.68. As to `COc1cc(C=O)ccc1OC(=O)c1cn(-c2ccccc2)nc1-c1ccc(Cl)cc1`, the binding affinity was determined as 1.81. Take `COc1cc(C=O)ccc1OC(=O)c1cn(-c2ccccc2)nc1-c1ccccc1`: the binding affinity was determined as 1.99. Turning to `O=C(OCc1ccc([N+](=O)[O-])cc1)c1cn(-c2ccccc2)nc1-c1ccccc1`, the binding affinity was 1.38. With `O=C(COC(=O)c1cn(-c2ccccc2)nc1-c1ccccc1)c1ccc(Cl)c([N+](=O)[O-])c1`, the binding affinity is 1.98. In the case of `Fc1ccc(-c2nn(-c3ccccc3)cc2CNCc2ccccc2)cc1`, the binding affinity was 1.63. For the compound `Cc1ccc(-c2nn(-c3ccccc3)cc2C(=O)NCC(=O)c2ccccc2)cc1`, the binding affinity worked out at 1.26. With `O=C(Oc1cccc2cccnc12)c1cn(-c2ccccc2)nc1-c1ccccc1`, the binding affinity was found to be 1.52.

In the case of `COc1cc(C=O)ccc1OC(=O)c1cn(-c2ccccc2)nc1-c1ccc(C2COCCO2)cc1` (stereo not drawn), the binding affinity turned out to be 1.5. As for `COc1ccc(-c2nn(-c3ccccc3)cc2C(=O)Oc2ccccc2)cc1`, the binding affinity came to 1.45. Regarding `COc1ccc(-c2nn(-c3ccccc3)cc2C(=O)Oc2ccc(C=O)cc2OC)cc1OC`, the binding affinity stood at 1.82. Take `COc1cc(C=O)ccc1OC(=O)c1cn(-c2ccccc2)nc1-c1ccc(C)cc1`: the binding affinity is 1.81. For the compound `CC(=O)c1ccc(OC(=O)c2cn(-c3ccccc3)nc2-c2ccccc2)cc1`, the binding affinity came out at 1.38. Regarding `CC(C)S(=O)(=O)c1ccc(COC(=O)c2cn(-c3ccccc3)nc2-c2ccccc2)cc1`, the binding affinity is 1.72. As to `Cc1ccc(-c2nn(-c3ccccc3)cc2C(=O)Oc2ccccc2)cc1`, the binding affinity stood at 1.31. On to `COc1ccc(-c2nn(-c3ccccc3)cc2C(=O)OCC(=O)c2ccc(Cl)cc2)cc1`, for which the binding affinity was found to be 1.42. Same read-out and setting: with `COc1cc(C=O)ccc1OC(=O)c1cn(-c2ccccc2)nc1-c1ccc(OC)c([N+](=O)[O-])c1` the figure was 1.36. Regarding `COc1ccc(-c2nn(-c3ccccc3)cc2C(=O)OCC(=O)c2ccc([N+](=O)[O-])cc2)cc1`, the binding affinity is 1.57. `O=C(Oc1ccccc1)c1cn(-c2ccccc2)nc1-c1ccc(F)cc1`: the binding affinity is 1.55.

In the case of `O=C(N/N=C/c1cn(-c2ccccc2)nc1-c1ccccc1)c1ccc([N+](=O)[O-])cc1`, the binding affinity is 1.37. Take `O=C(Oc1ccc([N+](=O)[O-])cc1)c1cn(-c2ccccc2)nc1-c1ccccc1`: the binding affinity amounted to 1.9. For the compound `COc1cc(C=O)ccc1OC(=O)c1cn(-c2ccccc2)nc1-c1ccc(F)cc1`, the binding affinity was 1.82. As to `COc1ccc(-c2nn(-c3ccccc3)cc2C(=O)OCC(=O)c2ccc(C)c([N+](=O)[O-])c2)cc1`, the binding affinity was 1.05.

In the case of `O=C(Oc1ccccc1)c1cn(-c2ccccc2)nc1-c1ccccc1`, the binding affinity stood at 1.63. Take `O=C(Oc1ccccc1)c1cn(-c2ccccc2)nc1-c1ccc(Br)cc1`: the binding affinity was 1.22.

On to `O=C(Oc1ccccc1)c1cn(-c2ccccc2)nc1-c1ccc(Cl)cc1`, for which the binding affinity worked out at 1.15.

In the case of `COc1cc(C=O)ccc1OC(=O)c1cn(-c2ccccc2)nc1-c1ccc([N+](=O)[O-])cc1`, the binding affinity turned out to be 1.35. With `COc1ccc(-c2nn(-c3ccccc3)cc2C(=O)OCC(=O)c2ccc(Br)cc2)cc1`, the binding affinity came out at 1.2. For `COc1ccc(-c2nn(-c3ccccc3)cc2C(=O)Oc2ccccc2)cc1OC`, the binding affinity is 1.64. With `CC(=O)Nc1ccc(OC(=O)c2cn(-c3ccccc3)nc2-c2ccccc2)cc1`, the binding affinity is 1.58. Turning to `O=C(COC(=O)c1cn(-c2ccccc2)nc1-c1ccc(Cl)cc1)c1ccccc1`, the binding affinity worked out at 1.15. Regarding `COc1ccc(-c2nn(-c3ccccc3)cc2C(=O)OCC(=O)c2ccccc2Cl)cc1`, the binding affinity was determined as 1.37. For `O=C(Oc1ccccc1)c1cn(-c2ccccc2)nc1-c1cccc([N+](=O)[O-])c1`, the binding affinity is 1.38.
